Where a name gives a salt, the structure may show the parent alone.

The values below come from patent publication US9546164B2 (GENENTECH, INC., priority 2013, dated 2017).

Sequence of hNav1.7 (Q15858 other isoform, or with tags, fused parts or gaps): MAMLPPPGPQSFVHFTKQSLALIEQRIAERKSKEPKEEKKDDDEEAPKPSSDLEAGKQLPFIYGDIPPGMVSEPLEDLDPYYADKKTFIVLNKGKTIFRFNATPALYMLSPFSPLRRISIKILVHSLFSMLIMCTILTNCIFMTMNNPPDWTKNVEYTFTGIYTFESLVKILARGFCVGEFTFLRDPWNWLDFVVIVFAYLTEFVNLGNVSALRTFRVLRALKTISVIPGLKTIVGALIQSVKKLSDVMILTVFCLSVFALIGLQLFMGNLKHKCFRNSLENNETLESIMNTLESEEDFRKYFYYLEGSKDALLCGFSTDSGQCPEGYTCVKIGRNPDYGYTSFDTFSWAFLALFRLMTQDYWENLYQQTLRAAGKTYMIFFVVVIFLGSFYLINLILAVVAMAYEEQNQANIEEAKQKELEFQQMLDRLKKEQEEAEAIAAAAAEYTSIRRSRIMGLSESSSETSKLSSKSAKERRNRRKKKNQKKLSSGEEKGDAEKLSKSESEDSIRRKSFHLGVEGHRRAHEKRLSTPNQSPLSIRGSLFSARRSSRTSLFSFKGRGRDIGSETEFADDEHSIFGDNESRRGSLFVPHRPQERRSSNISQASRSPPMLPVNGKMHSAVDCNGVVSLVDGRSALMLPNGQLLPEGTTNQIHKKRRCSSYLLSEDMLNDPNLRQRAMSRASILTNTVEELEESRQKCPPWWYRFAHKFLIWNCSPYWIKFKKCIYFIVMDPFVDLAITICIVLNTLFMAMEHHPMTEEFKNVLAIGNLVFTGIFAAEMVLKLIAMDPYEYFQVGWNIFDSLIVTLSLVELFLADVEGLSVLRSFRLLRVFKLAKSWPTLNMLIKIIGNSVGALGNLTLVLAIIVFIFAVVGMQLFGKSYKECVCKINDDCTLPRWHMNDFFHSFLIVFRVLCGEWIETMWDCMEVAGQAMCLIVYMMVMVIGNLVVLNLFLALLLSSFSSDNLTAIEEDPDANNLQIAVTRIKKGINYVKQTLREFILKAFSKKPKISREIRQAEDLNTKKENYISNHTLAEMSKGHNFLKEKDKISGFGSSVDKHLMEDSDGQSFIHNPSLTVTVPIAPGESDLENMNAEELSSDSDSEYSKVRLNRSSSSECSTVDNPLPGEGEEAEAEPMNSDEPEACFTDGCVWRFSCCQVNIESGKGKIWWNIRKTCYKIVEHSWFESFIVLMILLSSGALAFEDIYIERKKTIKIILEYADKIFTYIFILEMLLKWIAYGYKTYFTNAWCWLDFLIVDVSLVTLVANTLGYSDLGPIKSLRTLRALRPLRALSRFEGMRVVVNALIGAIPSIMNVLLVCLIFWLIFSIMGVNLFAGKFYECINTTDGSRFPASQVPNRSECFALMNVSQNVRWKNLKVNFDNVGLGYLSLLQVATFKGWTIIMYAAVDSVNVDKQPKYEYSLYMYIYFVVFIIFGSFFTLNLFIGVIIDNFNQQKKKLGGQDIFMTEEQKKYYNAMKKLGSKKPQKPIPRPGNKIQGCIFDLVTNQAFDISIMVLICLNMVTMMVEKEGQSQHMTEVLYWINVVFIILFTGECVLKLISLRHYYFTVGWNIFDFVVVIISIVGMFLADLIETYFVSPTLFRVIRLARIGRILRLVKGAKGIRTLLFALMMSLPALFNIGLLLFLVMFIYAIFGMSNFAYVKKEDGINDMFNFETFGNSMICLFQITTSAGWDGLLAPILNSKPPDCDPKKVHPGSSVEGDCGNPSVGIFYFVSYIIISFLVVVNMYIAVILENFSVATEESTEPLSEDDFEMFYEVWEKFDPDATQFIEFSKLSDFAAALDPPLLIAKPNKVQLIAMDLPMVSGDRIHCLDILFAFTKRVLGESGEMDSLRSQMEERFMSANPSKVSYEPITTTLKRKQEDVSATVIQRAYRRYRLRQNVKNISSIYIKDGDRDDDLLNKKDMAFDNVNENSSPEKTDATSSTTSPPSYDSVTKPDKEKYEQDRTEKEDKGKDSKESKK
Sequence of hNav1.7 (Q07699 19-218 partner): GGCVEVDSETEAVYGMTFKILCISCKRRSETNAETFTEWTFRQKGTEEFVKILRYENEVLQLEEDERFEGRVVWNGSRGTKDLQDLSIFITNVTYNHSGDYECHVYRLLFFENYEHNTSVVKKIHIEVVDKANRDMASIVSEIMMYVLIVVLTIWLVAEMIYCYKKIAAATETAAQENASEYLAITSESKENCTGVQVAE

One assay addresses hNav1.7 (Homo sapiens (Human), UniProt Q15858). The experiment in a line: Tritiated sulfonamide competitive binding to membranes from cells expressing hNav1.7 and the β1 subunit.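 Further: Filter-bound radioactivity counted by liquid scintillation, nonspecific binding defined with excess unlabelled ligand, IC50 fitted to percent inhibition of specific binding.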
Conditions: not given
`O=C(NS(=O)(=O)C1CC1)c1cc(Cl)c(O[C@@H]2CCCN(Cc3ccc(F)cc3Cl)C2)cc1F.O=C(O)C(Cl)(Cl)Cl` [Example 39, (R)-5-chloro-4-((1-(2-chloro-4-fluorobenzyl)piperidin-3-yl)oxy)-N-(cyclopropylsulfonyl)-2-fluorobenzamide, trichloroacetic acid salt]: the IC50 was 0.0068 µM.

As for `O=C(NS(=O)(=O)C1CC1)c1cc(C2CC2)c(CN2CCC(Oc3ccccc3C(F)(F)F)CC2)cc1F` [Example 498, 5-cyclopropyl-N-(cyclopropylsulfonyl)-2-fluoro-4-((4-(2-(trifluoromethyl)phenoxy)piperidin-1-yl)methyl)benzamide], the IC50 turned out to be 0.0874 µM.

`O=C(NS(=O)(=O)C1CC1)c1cc(C2CC2)c(CN2CCC(Oc3cc(C(F)(F)F)cc(Cl)c3F)CC2)cc1F` [Example 537, 4-((4-(3-chloro-2-fluoro-5-(trifluoromethyl)phenoxy)piperidin-1-yl)methyl)-5-cyclopropyl-N-(cyclopropylsulfonyl)-2-fluorobenzamide, trifluoroacetic acid salt] registered an IC50 of 0.0057 µM.

Still in this assay, the particulars now being: read-out: Ligand Binding Assay; 100 pM [3H]compound, membranes with hNav1.7 and β1 subunit, 18 h, room temperature.
`CC(C)(C)OC(=O)N1CC(COc2cc(F)c(C(=O)NS(C)(=O)=O)cc2C2CC2)C1` [Example 72, tert-butyl 3-((2-cyclopropyl-5-fluoro-4-((methylsulfonyl)carbamoyl)phenoxy)methyl)azetidine-1-carboxylate]: the IC50 stood at 0.75 µM.

Turning to `O=C(NS(=O)(=O)N1CCC1)c1cc(C2CC2)c(OCC2CCN(C(c3ccc(F)cc3)c3ccc(F)cc3)CC2)cc1F` [Example 419, N-azetidin-1-ylsulfonyl)-4-((1-(bis(4-fluorophenyl)methyl)piperidin-4-yl)methoxy)-5-cyclopropyl-2-fluorobenzamide, trifluoroacetic acid salt], the IC50 was determined as 0.0052 µM.

On to `O=C(NS(=O)(=O)C1CC1)c1cc(C2CC2)c(OC[C@@H]2C[C@H]3CC[C@@H](C2)N3Cc2cc(C(F)(F)F)ccc2Cl)cc1F` [Example 397, 4-(((1R,3S,5S)-8-(2-chloro-5-(trifluoromethyl)benzyl)-8-azabicyclo[3.2.1]octan-3-yl)methoxy)-5-cyclopropyl-N-(cyclopropylsulfonyl)-2-fluorobenzamide, trifluoroacetic acid salt], for which the IC50 turned out to be 0.0057 µM.

As to `CC1(COc2cc(F)c(C(=O)NS(C)(=O)=O)cc2C2CC2)CCN(Cc2cc(Cl)cc(Cl)c2)CC1` [Example 123, 5-cyclopropyl-4-((1-(3,5-dichlorobenzyl)-4-methylpiperidin-4-yl)methoxy)-2-fluoro-N-(methylsulfonyl)benzamide], the IC50 stood at 0.0029 µM.

For `CS(=O)(=O)NC(=O)c1cc(C2CC2)c(OCC2CN([C@H](c3ccccc3)c3cc(Cl)cc(Cl)c3)C2)cc1F` [Example 143], the IC50 was 0.0026 µM.

Consider `O=C(NS(=O)(=O)N1CCC1)c1cc(C2CC2)c(O[C@@H]2CCN(Cc3ccccc3)C2)cc1F` [Example 46, (R)—N-(azetidin-1-ylsulfonyl)-4-((1-benzylpyrrolidin-3-yl)oxy)-5-cyclopropyl-2-fluorobenzamide], for which the IC50 was found to be 0.92 µM.

Consider `CCS(=O)(=O)NC(=O)c1cc(C2CC2)c(OCC2CCN([C@H](C)c3ccc(Cl)cc3Cl)CC2)cc1F` [Example 284, (R)-5-cyclopropyl-4-((1-(1-(2,4-dichlorophenyl)ethyl)piperidin-4-yl)methoxy)-N-(ethylsulfonyl)-2-fluorobenzamide], for which the IC50 was 0.0036 µM.

`Cc1cc(C(=O)NS(C)(=O)=O)c(F)cc1OCC1CCN([C@@H](C)c2cc(Cl)cc(Cl)c2)CC1` [Example 360, (S)-4-((1-(1-(3,5-dichloro)ethyl)piperidin-4-yl)methoxy)-2-fluoro-5-methyl-N-(methylsulfonyl)benzamide, trifluoroacetic acid]: the IC50 came to 0.0128 µM.

In the case of `CS(=O)(=O)NC(=O)c1cc(C2CC2)c(OCC2CCN(C3(c4cc(Cl)cc(Cl)c4)COC3)CC2)cc1F` [Example 174, 5-Cyclopropyl-4-((1-(3-(3,5-dichlorophenyl)oxetan-3-yl)piperidin-4-yl)methoxy)-2-fluoro-N-(methylsulfonyl)benzamide], the IC50 was 0.012 µM.

Turning to `CS(=O)(=O)NC(=O)c1cc(C2CC2)c(OCC2CN([C@@H](c3ccccc3)c3ccncc3)C2)cc1F` [Example 152, (S)-5-Cyclopropyl-2-fluoro-N-(methylsulfonyl)-4-((1-(phenyl(pyridin-4-yl)methyl)azetidin-3-yl)methoxy)benzamide], the IC50 was 0.443 µM.

For `CS(=O)(=O)NC(=O)c1cc(C2CC2)c(OCC2CN([C@@H](c3ccccc3)c3cccc(C#N)c3)C2)cc1F` [Example 108, (S)-4-((1-((3-Cyanophenyl)(phenyl)methyl)azetidin-3-yl)methoxy)-5-cyclopropyl-2-fluoro-N-(methylsulfonyl)benzamide], the IC50 turned out to be 0.094 µM.

Take `COC[C@@H](c1cccc(Cl)c1)N1CCC(COc2cc(F)c(C(=O)NS(C)(=O)=O)cc2C2CC2)CC1` [Example 262, (R)-4-((1-(1-(3-chlorophenyl)-2-methoxyethyl)piperidin-4-yl)methoxy)-5-cyclopropyl-2-fluoro-N-(methylsulfonyl)benzamide]: the IC50 was 0.018 µM.

Regarding `C[C@@H](c1ccc(F)cc1)N1CCC[C@@H](Oc2cc(F)c(C(=O)NS(C)(=O)=O)cc2C2CC2)C1` (single isomer, unassigned) [Example 315], the IC50 was found to be 0.0191 µM.

As for `CS(=O)(=O)NC(=O)c1cc(C2CC2)c(O[C@@H]2CCCN(C(=O)c3cc(Cl)cc(Cl)c3)C2)cc1F` [Example 221, (R)-5-cyclopropyl-4-((1-(3,5-dichlorobenzoyl)piperidin-3-yl)oxy)-2-fluoro-N-(methylsulfonyl)benzamide], the IC50 is 1.8 µM.

Take `CS(=O)(=O)NC(=O)c1cc(C2CC2)c(OCC2CCN(S(=O)(=O)c3cc(Cl)c(Br)cc3F)CC2)cc1F` [Example 366, 4-((1-((4-bromo-5-chloro-2-fluorophenyl)sulfonyl)piperidin-4-yl)methoxy)-5-cyclopropyl-2-fluoro-N-(methylsulfonyl)benzamide]: the IC50 was 0.0091 µM.

Consider `CS(=O)(=O)NC(=O)c1cc(C2CC2)c(OCC2CN(S(=O)(=O)c3cc(Cl)cc(Cl)c3)C2)cc1F` [Example 274, 5-Cyclopropyl-4-((1-((3,5-dichlorophenyl)sulfonyl)azetidin-3-yl)methoxy)-2-fluoro-N-(methylsulfonyl)benzamide], for which the IC50 was 0.068 µM.

Take `C[C@H](c1cc(Cl)cc(Cl)c1)N1CCC(C)(COc2cc(F)c(C(=O)NS(C)(=O)=O)cc2C2CC2)CC1` (single isomer, unassigned) [Example 212]: the IC50 was found to be 0.0027 µM.

`CS(=O)(=O)NC(=O)c1cc(C2CC2)c(O[C@@H]2CCCN(Cc3cccc(-c4ccccc4)c3)C2)cc1F` [Example 443, (R)-4-((1-([1,1′-biphenyl]-3-ylmethyl)piperidin-3-yl)oxy)-5-cyclopropyl-2-fluoro-N-(methylsulfonyl)benzamide, trifluoroacetic acid salt]: the IC50 worked out at 0.0034 µM.

As for `O=C(NS(=O)(=O)C1CC1)c1cc(C2CC2)c(OCC2CCN(C(=O)c3cc(Cl)cc(Cl)c3)CC2)cc1F` [Example 254, 5-Cyclopropyl-N-(cyclopropylsulfonyl)-4-((1-(3,5-dichlorobenzoyl)piperidin-4-yl)methoxy)-2-fluorobenzamide], the IC50 turned out to be 0.026 µM.
